Laboratory results reported in patent US20110293757A1, “Compositions Comprising Tea Tree Oil and Methods for the Prevention and Treatment of Cancer” (priority 2008, published 2011).

How the values were obtained:
AE17 mesothelioma = experiment: Topical treatment of subcutaneous murine AE17 mesothelioma tumours, tumour area by micro-callipers; assay type: in vivo, C57BL/6J mice; conditions: 50 ul topically; 4% terpinen-4-ol, 2% γ-terpinene, 1% α-terpinene, 0.5% 1,8-cineole, 0.5% p-cymene; vs untreated controls
From the text: The models used, murine AE17 mesothelioma and murine B16 melanoma tumour, both involve the implantation of tumour cell lines subcutaneously onto the rear flank of fully immuno-competent mice. Palpable tumours arise within 3-14 days.
Female fully immuno-competent C57BL/6J mice between 6-8 weeks of ages are obtained from the Animal Resources Centre (Perth, Australia) and maintained under SPF (specified pathogen free) housing conditions (Animal Care Unit, University of Western Australia).
AE17 cells were derived from the peritoneal cavity of C57BL/6J mice injected with asbestos fibres (Jackaman, 2003) and (Davis, 1992) and are injected subcutaneously at a concentration of 1×10^7 per mouse (Needham, 2006). […]

[1] = test system: B16 melanoma, UV induced squamous carcinoma and Lewis lung carcinoma; conditions: 18 μg, 3 topical treatments (Ogbourne, 2004); cited from earlier work
skin = conditions: cited from earlier work

CC12CCC(CC1)C(C)(C)O2 [1,8-cineole]
AE17 tumour growth, components applied singly with DMSO (AE17 mesothelioma): lack of efficacy

C/C=C(/C)C(=O)O[C@H]1C(C)=C[C@]23C(=O)[C@@H](C=C(CO)[C@@H](O)[C@]12O)[C@H]1[C@@H](C[C@H]3C)C1(C)C [3-Ingenyl-Angelate]
tumour regression [1]: induces tumour regression with just 3 topical treatments
skin reaction on topical application (skin): elicits skin irritation

CC(C)Cn1cnc2c(N)nc3ccccc3c21 [Imiquimod]
skin reaction on topical application (skin): redness, drying and scabbing

Cc1ccc(C(C)C)cc1 [p-cymene]
AE17 tumour growth, components applied singly with DMSO (AE17 mesothelioma): lack of efficacy

CC1=CCC(O)(C(C)C)CC1 (centres unmarked) [terpinen-4-ol]
AE17 tumour growth, components applied singly with DMSO (AE17 mesothelioma): lack of efficacy

CC1=CC=C(C(C)C)CC1 [α-terpinene]
AE17 tumour growth, components applied singly with DMSO (AE17 mesothelioma): lack of efficacy

CC1=CCC(C(C)C)=CC1 [γ-terpinene]
AE17 tumour growth, components applied singly with DMSO (AE17 mesothelioma): lack of efficacy
